In PubChem BioAssay AID248 (DTP/NCI, 2004):
Values joined by “and” are separate entries in the source; they are usually repeats but may differ in a detail not shown here. Equal entries are not always repeated. Toxic doses and inconclusive results are not listed.

System: L1210 leukemia ip in BDF1 mice, survival T/C
Experiment: NCI In Vivo Anticancer Drug Screen. Data for tumor model L1210 Leukemia (intraperitoneal) in B6D2F1 (BDF1) mice
Settings: endpoint: mean survival time, higher = longer survival
Method in brief: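 Mice bearing the transplanted tumor received compound or vehicle. Survival of the treated group was divided by that of the vehicle-treated control group to give the ratio.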

[1] = dose: 100.0 mg/kg/injection, schedule: Q04DX003 (ip), vehicle: saline
[2] = dose: 200.0 mg/kg/injection, schedule: Q04DX003 (ip), vehicle: saline
[3] = dose: 100.0 mg/kg/injection, schedule: Q01DX001 (ip), vehicle: carboxymethylcellulose (CMC)
[4] = dose: 200.0 mg/kg/injection, schedule: Q01DX001 (ip), vehicle: carboxymethylcellulose (CMC)
[5] = dose: 400.0 mg/kg/injection, schedule: Q01DX001 (ip), vehicle: carboxymethylcellulose (CMC)
[6] = dose: 75.0 mg/kg/injection, schedule: Q01DX001 (ip), vehicle: saline
[7] = dose: 100.0 mg/kg/injection, schedule: Q01DX001 (ip), vehicle: Klucel (hydroxypropylcellulose) (HPC)
[8] = dose: 100.0 mg/kg/injection, schedule: Q01DX009 (ip), vehicle: Klucel (hydroxypropylcellulose) (HPC)
[9] = dose: 200.0 mg/kg/injection, schedule: Q01DX009 (ip), vehicle: Klucel (hydroxypropylcellulose) (HPC)
[10] = dose: 100.0 mg/kg/injection, schedule: Q01DX001 (ip), vehicle: saline
[11] = dose: 200.0 mg/kg/injection, schedule: Q01DX001 (ip), vehicle: saline
[12] = dose: 400.0 mg/kg/injection, schedule: Q01DX001 (ip), vehicle: saline
[13] = dose: 100.0 mg/kg/injection, schedule: Q01DX009 (ip), vehicle: saline
[14] = dose: 200.0 mg/kg/injection, schedule: Q01DX009 (ip), vehicle: saline
[15] = dose: 400.0 mg/kg/injection, schedule: Q04DX003 (ip), vehicle: saline

Fc1c(F)c(F)c(-c2c(F)c(F)c(-c3c(F)c(F)c(-c4c(F)c(F)c(F)c(F)c4F)c(F)c3F)c(F)c2F)c(F)c1F
T/C (dose: 100.0 mg/kg/injection, schedule: Q01DX001 (ip), vehicle: saline with Tween-80): 88 % of control | T/C (dose: 200.0 mg/kg/injection, schedule: Q01DX001 (ip), vehicle: saline with Tween-80): 88 % of control | T/C (dose: 400.0 mg/kg/injection, schedule: Q01DX001 (ip), vehicle: saline with Tween-80): 88 % of control

CCn1c(=O)oc2ccccc2c1=S
T/C [1]: 100 % of control | T/C [2]: 96 % of control

CSc1nnc2sc(C)nn12
T/C [3]: 104 % of control | T/C [4]: 104 % of control | T/C [5]: 102 % of control

CCC(C)C(CCCCN1CCOCC1)(CNC(=O)CN(CC)CC)c1cccc2ccccc12 (centres undefined)
T/C (dose: 12.5 mg/kg/injection, schedule: Q04DX003 (ip), vehicle: saline): 104 % of control | T/C (dose: 25.0 mg/kg/injection, schedule: Q04DX003 (ip), vehicle: saline): 98 % of control | T/C (dose: 50.0 mg/kg/injection, schedule: Q04DX003 (ip), vehicle: saline): 108 % of control

CC(O)CNC1CCCCC1 (centres undefined)
T/C [6]: 92 % of control | T/C (dose: 150.0 mg/kg/injection, schedule: Q01DX001 (ip), vehicle: saline): 100 % of control

CCCCP(=O)(CCCC)Oc1cccc([N+](=O)[O-])c1
T/C (dose: 25.0 mg/kg/injection, schedule: Q04DX003 (ip), vehicle: saline with Tween-80): 97 % of control | T/C (dose: 50.0 mg/kg/injection, schedule: Q04DX003 (ip), vehicle: saline with Tween-80): 96 % of control | T/C (dose: 100.0 mg/kg/injection, schedule: Q04DX003 (ip), vehicle: saline with Tween-80): 95 % of control and 102 % of control

CCOC(=O)CCCN1CCC=C(C#N)C1
T/C [6]: 102 % of control | T/C (dose: 300.0 mg/kg/injection, schedule: Q01DX001 (ip), vehicle: saline): 107 % of control

CC(CC(C)O)=NCCN=C(C)CC(C)O.[Ni] (centres undefined)
T/C (dose: 6.25 mg/kg/injection, schedule: Q01DX009 (ip), vehicle: saline with Tween-80): 108 % of control | T/C (dose: 12.5 mg/kg/injection, schedule: Q01DX009 (ip), vehicle: saline with Tween-80): 89 % of control

CCOC(=O)Nc1cc2c(c(N)n1)N=C(CN(C)c1ccc(Cl)cc1)CN2
T/C [7]: 150 % of control and 165 % of control | T/C (dose: 150.0 mg/kg/injection, schedule: Q01DX001 (ip), vehicle: Klucel (hydroxypropylcellulose) (HPC)): 93 % of control

O=C(C[n+]1ccccc1CO)c1ccc(-c2ccc(C(=O)C[n+]3ccccc3CO)cc2)cc1
T/C (dose: 0.15 mg/kg/injection, schedule: Q04DX003 (ip), vehicle: saline): 97 % of control | T/C (dose: 0.3 mg/kg/injection, schedule: Q04DX003 (ip), vehicle: saline): 96 % of control | T/C (dose: 0.6 mg/kg/injection, schedule: Q04DX003 (ip), vehicle: saline): 100 % of control

O=C(/C=C\c1ccccc1)c1ccc(Cl)cc1
T/C [8]: 97 % of control | T/C [9]: 97 % of control | T/C (dose: 400.0 mg/kg/injection, schedule: Q01DX009 (ip), vehicle: Klucel (hydroxypropylcellulose) (HPC)): 100 % of control

CC(=O)NCC(=O)c1ccc(S(=O)(=O)c2ccccc2)cc1
T/C (dose: 50.0 mg/kg/injection, schedule: Q01DX001 (ip), vehicle: carboxymethylcellulose (CMC)): 104 % of control | T/C [3]: 98 % of control | T/C [4]: 96 % of control | T/C [5]: 98 % of control

CC(C)(C)c1cc(/C=C/C(=O)O)cc(C(C)(C)C)c1O
T/C [7]: 107 % of control | T/C (dose: 200.0 mg/kg/injection, schedule: Q01DX001 (ip), vehicle: Klucel (hydroxypropylcellulose) (HPC)): 96 % of control | T/C (dose: 400.0 mg/kg/injection, schedule: Q01DX001 (ip), vehicle: Klucel (hydroxypropylcellulose) (HPC)): 90 % of control

CC(C)(C)[O][Pb]([c]1ccccc1)([c]1ccccc1)[c]1ccccc1
T/C (dose: 1.56 mg/kg/injection, schedule: Q01DX009 (ip), vehicle: saline with Tween-80): 91 % of control

CC(=O)OC1=CC2(OC(C)=O)CCC1C1C(=O)OC(=O)C12 (centres undefined)
T/C [10]: 102 % of control | T/C (dose: 100.0 mg/kg/injection, schedule: Q04DX003 (ip), vehicle: acetone): 93 % of control | T/C [11]: 91 % of control | T/C (dose: 200.0 mg/kg/injection, schedule: Q04DX003 (ip), vehicle: acetone): 96 % of control | T/C [12]: 90 % of control

CCOc1cc(OCC)c(C=O)c(OCC)c1
T/C (dose: 100.0 mg/kg/injection, schedule: Q01DX009 (ip), vehicle: other): 96 % of control | T/C [11]: 88 % of control | T/C (dose: 200.0 mg/kg/injection, schedule: Q01DX009 (ip), vehicle: other): 94 % of control | T/C [12]: 102 % of control | T/C (dose: 400.0 mg/kg/injection, schedule: Q01DX009 (ip), vehicle: other): 97 % of control

C#CCOCC(O)C[As](=O)(O)c1cccc(Cl)c1 (centres undefined)
T/C (dose: 1.56 mg/kg/injection, schedule: Q04DX003 (ip), vehicle: saline with Tween-80): 92 % of control | T/C (dose: 3.13 mg/kg/injection, schedule: Q04DX003 (ip), vehicle: saline with Tween-80): 104 % of control | T/C (dose: 6.25 mg/kg/injection, schedule: Q04DX003 (ip), vehicle: saline with Tween-80): 104 % of control

N#CC(C#N)=Cc1ccccc1[N+](=O)[O-]
T/C (dose: 25.0 mg/kg/injection, schedule: Q01DX Z (ip), vehicle: methylcellulose (MC)): 98 % of control | T/C (dose: 50.0 mg/kg/injection, schedule: Q01DX Z (ip), vehicle: methylcellulose (MC)): 88 % of control

N#Cc1[nH]cnc1N
T/C [10]: 94 % of control | T/C [11]: 105 % of control | T/C [12]: 97 % of control

CN(C)c1ccc2c(c1)C(Br)c1ccccc1-2 (centres undefined)
T/C [8]: 106 % of control | T/C (dose: 100.0 mg/kg/injection, schedule: Q04DX003 (ip), vehicle: Klucel (hydroxypropylcellulose) (HPC)): 94 % of control | T/C [9]: 107 % of control | T/C (dose: 200.0 mg/kg/injection, schedule: Q04DX003 (ip), vehicle: Klucel (hydroxypropylcellulose) (HPC)): 96 % of control | T/C (dose: 400.0 mg/kg/injection, schedule: Q04DX003 (ip), vehicle: Klucel (hydroxypropylcellulose) (HPC)): 97 % of control

CC1=C(/C=C/C(C)=N/NC(N)=O)C(C)(C)CCC1
T/C [13]: 100 % of control | T/C [1]: 94 % of control | T/C [14]: 100 % of control | T/C [2]: 102 % of control | T/C [15]: 96 % of control

CC(=O)NC1COC(O)C(O)C1O (centres undefined)
T/C [1]: 94 % of control | T/C [2]: 101 % of control | T/C [15]: 101 % of control

CC(C)=CCC/C(C)=C/CN1C(=O)CN(C)C1=O
T/C (dose: 50.0 mg/kg/injection, schedule: Q01DX009 (ip), vehicle: saline): 98 % of control | T/C [10]: 100 % of control | T/C [13]: 101 % of control | T/C [11]: 103 % of control | T/C [14]: 98 % of control | T/C [12]: 100 % of control

COc1ccc(NC(=O)Oc2ccc(C(C)=O)cc2)cc1
T/C (dose: 25.0 mg/kg/injection, schedule: Q01DX009 (ip), vehicle: Klucel (hydroxypropylcellulose) (HPC)): 100 % of control | T/C (dose: 50.0 mg/kg/injection, schedule: Q01DX009 (ip), vehicle: Klucel (hydroxypropylcellulose) (HPC)): 94 % of control | T/C [8]: 97 % of control and 91 % of control

Cc1ccc(S(=O)(=O)Nc2ccc3ncccc3c2)cc1
T/C [10]: 103 % of control | T/C [11]: 102 % of control | T/C [12]: 96 % of control

CCC1CN2C(=N1)c1ccccc1-c1cc(Cl)cc(Cl)c12 (centres undefined)
T/C (dose: 100.0 mg/kg/injection, schedule: Q01DX005 (ip), vehicle: Klucel (hydroxypropylcellulose) (HPC)): 88 % of control | T/C (dose: 100.0 mg/kg/injection, schedule: Q04DX002 (ip), vehicle: Klucel (hydroxypropylcellulose) (HPC)): 107 % of control | T/C (dose: 200.0 mg/kg/injection, schedule: Q01DX005 (ip), vehicle: Klucel (hydroxypropylcellulose) (HPC)): 94 % of control | T/C (dose: 200.0 mg/kg/injection, schedule: Q04DX002 (ip), vehicle: Klucel (hydroxypropylcellulose) (HPC)): 101 % of control | T/C (dose: 400.0 mg/kg/injection, schedule: Q01DX005 (ip), vehicle: Klucel (hydroxypropylcellulose) (HPC)): 102 % of control | T/C (dose: 400.0 mg/kg/injection, schedule: Q04DX002 (ip), vehicle: Klucel (hydroxypropylcellulose) (HPC)): 101 % of control

COC1(c2ccc(Cl)s2)OC1(C)C (centres undefined)
T/C [13]: 100 % of control | T/C [1]: 100 % of control | T/C [14]: 96 % of control | T/C [2]: 105 % of control | T/C (dose: 400.0 mg/kg/injection, schedule: Q01DX009 (ip), vehicle: saline): 105 % of control | T/C [15]: 96 % of control

CC(C)(C)C(C)(C)O
T/C (dose: 75.0 mg/kg/injection, schedule: Q01DX001 (ip), vehicle: saline with Tween-80): 100 % of control | T/C (dose: 150.0 mg/kg/injection, schedule: Q01DX001 (ip), vehicle: saline with Tween-80): 97 % of control | T/C (dose: 300.0 mg/kg/injection, schedule: Q01DX001 (ip), vehicle: saline with Tween-80): 92 % of control
